Where a name gives a salt, the structure may show the parent alone.
Key:
[1] = target: T1, human H1 receptor (Homo sapiens, UniProt P35367); test: Histamine H1 receptor binding, competition displacement of [3H]-pyrilamine; settings: displacement of 1 nM [3H]-pyrilamine, membranes of recombinant CHO-K1 cells expressing human H1 receptor, 1 hour at room temperature; for Ki: read-out: H1 pKi (converted)
T1 construct: purchased Euroscreen SA, Brussels, Belgium ES-390-M; host or cells: CHO-K1
Experimental: Histamine H1 receptor binding activity of compounds of the invention was assessed by competition displacement of 1 nM [3H]-pyrilamine (Amersham, Bucks, Product code TRK 608, specific activity 30 Ci/mmol) to 2 μg membranes prepared from recombinant CHO-K1 cells expressing the human H1 receptor (Euroscreen SA, Brussels, Belgium, product code ES-390-M) in assay buffer (50 mM Tris pH 7.4 containing 2 mM MgCl2, 250 mM sucrose and 100 mM NaCl) for 1 hour at room temperature.
The following compounds of the invention gave inhibition of [3H]pyrilamine binding: […]

[2] = target: T2, recombinant human CCR3 (Homo sapiens, UniProt P51677); test: Compound affinity at human recombinant CCR3 receptors, radioligand competition on CHO-K1 cell membranes; assay type: binding; settings: competition with 2 nM [3H]-4-(2,4-dichloro-3-methylphenoxy)-1'-[4-(methylsulfonyl)benzoyl]-1,4'-bipiperidine, 2 h at 37° C., mean pKi by Cheng-Prussof correction of pIC50, minimum 2 experiments
T2 construct: expressed in transfected cells; host or cells: CHO-K1
T2 sequence (P51677 1-355): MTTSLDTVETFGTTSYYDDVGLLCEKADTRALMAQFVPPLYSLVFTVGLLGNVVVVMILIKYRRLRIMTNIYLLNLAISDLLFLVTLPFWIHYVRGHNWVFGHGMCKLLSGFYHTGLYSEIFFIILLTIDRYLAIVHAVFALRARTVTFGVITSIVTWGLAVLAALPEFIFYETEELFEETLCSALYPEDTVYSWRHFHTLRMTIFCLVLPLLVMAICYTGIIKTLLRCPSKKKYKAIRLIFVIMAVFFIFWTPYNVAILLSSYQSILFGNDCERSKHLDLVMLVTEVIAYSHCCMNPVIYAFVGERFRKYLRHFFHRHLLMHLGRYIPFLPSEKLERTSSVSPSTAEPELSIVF
Experimental: Determination of Compound Affinity at Human Recombinant CCR3 Receptors Assessed by Competition of [^3H]-4-(2,4-dichloro-3-methylphenoxy)-1′-[4-(methylsulfonyl)benzoyl]-1,4′-bipiperidine for CHO-K1 Cell Membranes In Vitro
Membranes, prepared from CHO-K1 cells stably expressing recombinant human CCR3, suspended in assay buffer (50 mM Tris-Base, pH 7.4; containing sodium chloride (100 mM) and magnesium chloride (2 mM)) were incubated in the presence of 2 nM [^3H]-4-(2,4-dichloro-3-methylphenoxy)-1′-[4-(methylsulfonyl)benzoyl]-1,4′-bipiperidine, along with vehicle (1% (v/v) DMSO), 4-(4-chloro-3-methylphenoxy)-1′-[2-(methylsulfonyl)benzoyl]-1,4′-bipiperidine (to define non-specific binding) or test compound for 2 h at 37° C. in round bottomed 96-well plates. The plates were then filtered onto GF/B filter plates, pre-soaked for 1 hour in plate-coating solution (0.3% (w/v) polyethylenimine, 0.2% (w/v) BSA in de-ionised water), using a 96-well plate Tomtec cell harvester. Four washes (250 μL) with wash buffer (50 mM Tris-Base, pH 7.4 containing sodium chloride (500 mM) and magnesium chloride (2 mM)) were performed at 4° C. to remove unbound radioactivity. […] The plates were sealed (TopSeal A) and filter-bound radioactivity was measured with a scintillation counter (TopCount, Packard BioScience) using a 1 minute counting protocol. […]

T1 sequence (P35367 whole entry): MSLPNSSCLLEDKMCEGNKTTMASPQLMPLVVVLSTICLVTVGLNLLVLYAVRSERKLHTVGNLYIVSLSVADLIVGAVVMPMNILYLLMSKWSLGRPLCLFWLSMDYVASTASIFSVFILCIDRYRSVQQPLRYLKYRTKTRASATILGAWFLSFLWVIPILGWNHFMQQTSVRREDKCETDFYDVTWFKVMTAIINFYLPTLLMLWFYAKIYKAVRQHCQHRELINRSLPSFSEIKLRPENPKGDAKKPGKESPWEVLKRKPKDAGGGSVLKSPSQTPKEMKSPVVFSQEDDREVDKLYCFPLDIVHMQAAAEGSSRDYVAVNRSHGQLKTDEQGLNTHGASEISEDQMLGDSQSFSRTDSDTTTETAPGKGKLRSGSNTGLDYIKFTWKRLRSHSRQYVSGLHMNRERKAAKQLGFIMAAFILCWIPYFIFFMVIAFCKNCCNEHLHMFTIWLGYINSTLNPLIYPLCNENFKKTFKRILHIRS

| Ki [1] [µM] | Molecule | further results |
| --- | --- | --- |
| 0.0794 | Cc1c(OC2CCN(CC3CCN([C@@H](CC4CCCCC4)C(=O)O)CC3)CC2)ccc(Cl)c1Cl [Example 2A, (2S)-3-Cyclohexyl-2-(4-{[4-(3,4-dichloro-2-methylphenoxy)piperidin-1-yl]methyl}piperidin-1-yl)propanoic acid] |  |
| 0.2 | Cc1c(OC2CCN(CC3CCN([C@@H](CC4CC4)C(=O)O)CC3)CC2)ccc(Cl)c1Cl [Example 3A, (2S)-3-Cyclopropyl-2-(4-{[4-(3,4-dichloro-2-methylphenoxy)piperidin-1-yl]methyl}piperidin-1-yl)propanoic acid] |  |
| 0.126 | O=C(O)[C@H](CC1CCCC1)N1CCC(CN2CCC(Oc3ccc(Cl)c(Cl)c3)CC2)CC1 [Example 4A, (2S)-3-Cyclopentyl-2-(4-{[4-(3,4-dichlorophenoxy)piperidin-1-yl]methyl}piperidin-1-yl)propanoic acid] |  |
| 0.501 | O=C(O)C1(N2CCC(CN3CCC(Oc4ccc(Cl)c(Cl)c4)CC3)CC2)CCCCC1 [Example 6A, 1-(4-{[4-(3,4-dichlorophenoxy)piperidin-1-yl]methyl}piperidin-1-yl)cyclohexanecarboxylic acid] |  |
| 0.316 | Cc1c(OC2CCN(CC3CCN(C4(C(=O)O)CCCC4)CC3)CC2)ccc(Cl)c1Cl [Example 8A, 1-(4-{[4-(3,4-dichloro-2-methylphenoxy)piperidin-1-yl]methyl}piperidin-1-yl)cyclopentanecarboxylic acid] |  |
| 0.631 | Cc1cc(Cl)ccc1OC1CCN(CC2CCN(C3(C(=O)O)CCCCC3)CC2)CC1 [Example 13A, 1-(4-{[4-(4-Chloro-2-methylphenoxy)piperidin-1-yl]methyl}piperidin-1-yl)cyclohexanecarboxylic acid dihydrochloride] |  |
|  | Cc1cc(Cl)ccc1OC1CCN(CC2CCN([C@@](C)(CC(C)C)C(=O)O)CC2)CC1 [Example 16A, (2S)-2-{4-[4-(4-Chloro-2-methyl-phenoxy)-piperidin-1-ylmethyl]-piperidin-1-yl}-2,4-dimethyl-pentanoic acid] | Ki [2]: 0.000631 µM |
|  | (2S)-3-cyclohexyl-2-(4-{[4-(3,4-dichloro-2-methylphenoxy)piperidin-1-yl]methyl}piperidin-1-yl)propanoic acid [Example 1A] | H1 pKi [1]: 7.2 |
